Measured values from ChEMBL document CHEMBL1921749, “5-Lipoxygenase-activating protein (FLAP) inhibitors. Part 4: development of 3-[3-tert-butylsulfanyl-1-[4-(6-ethoxypyridin-3-yl)benzyl]-5-(5-methylpyridin-2-ylmethoxy)-1H-indol-2-yl]-2,2-dimethylpropionic acid (AM803), a potent, oral, once daily FLAP inhibitor” (J Med Chem, 2011).

Tests used:
[1] = Volume of distribution in Beagle dog at 2 mg/kg, iv; assay type: ADME, organism-based, Canis lupus familiaris; parameters: dose 2 mg/kg, route intravenous; settings: in vivo
[2] = Plasma protein binding in human; assay type: ADME, cell-free; settings: read-out: PPB (converted)
Rattus norvegicus [3] = assay: Antiinflammatory activity in rat assessed as inhibition of calcium ionophore A23187-induced LTB4 production in bronchoalveolar lavage fluid at 3 mg/kg, po administered 4 hrs prior to A23187 challenge; assay type: functional, Lung; parameters: scale not given: the % may be the effect or the level left
[4] = Clearance in Beagle dog at 2 mg/kg, iv; assay type: ADME, organism-based, Canis lupus familiaris; parameters: dose 2 mg/kg, route intravenous; settings: in vivo
[5] = molecular target: T1, Arachidonate 5-lipoxygenase-activating protein (Homo sapiens, UniProt P20292); assay: Inhibition of FLAP in human peripheral leukocytes assessed as inhibition of calcium ionophore A23187-induced LTB4 production after 10 mins by ELISA in presence of 0.5% human serum albumin; assay type: cell-based
T1 sequence (P20292 whole entry): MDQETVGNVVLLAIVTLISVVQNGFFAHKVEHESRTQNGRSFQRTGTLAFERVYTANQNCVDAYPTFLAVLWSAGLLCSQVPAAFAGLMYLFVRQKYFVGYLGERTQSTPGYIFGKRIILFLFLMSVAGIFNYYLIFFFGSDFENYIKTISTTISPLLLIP

[6] = molecular target: T1, Arachidonate 5-lipoxygenase-activating protein; assay: Inhibition of FLAP in human whole blood assessed as inhibition of calcium ionophore A23187-induced LTB4 production preincubated for 15 mins by ELISA
[7] = Plasma concentration in rat at 3 mg/kg, po after 4 hrs; assay type: ADME, organism-based; parameters: dose 3 mg/kg, route oral
Cytochrome P450 3A4 = Cytochrome P450 3A4 (Homo sapiens, UniProt P08684); assay: Time-dependent inhibition of CYP3A4 at 10 uM; assay type: ADME
Rattus norvegicus [8] = assay: Antiinflammatory activity in rat assessed as inhibition of calcium ionophore A23187-induced CysLT production in bronchoalveolar lavage fluid at 3 mg/kg, po administered 16 hrs prior to A23187 challenge; assay type: functional, Lung; parameters: scale not given: the % may be the effect or the level left
Cytochrome P450 1A2 = molecular target: T2, Cytochrome P450 1A2 (Homo sapiens, UniProt P05177); assay: Inhibition of human CYP1A2; assay type: ADME
T2 sequence (P05177 whole entry): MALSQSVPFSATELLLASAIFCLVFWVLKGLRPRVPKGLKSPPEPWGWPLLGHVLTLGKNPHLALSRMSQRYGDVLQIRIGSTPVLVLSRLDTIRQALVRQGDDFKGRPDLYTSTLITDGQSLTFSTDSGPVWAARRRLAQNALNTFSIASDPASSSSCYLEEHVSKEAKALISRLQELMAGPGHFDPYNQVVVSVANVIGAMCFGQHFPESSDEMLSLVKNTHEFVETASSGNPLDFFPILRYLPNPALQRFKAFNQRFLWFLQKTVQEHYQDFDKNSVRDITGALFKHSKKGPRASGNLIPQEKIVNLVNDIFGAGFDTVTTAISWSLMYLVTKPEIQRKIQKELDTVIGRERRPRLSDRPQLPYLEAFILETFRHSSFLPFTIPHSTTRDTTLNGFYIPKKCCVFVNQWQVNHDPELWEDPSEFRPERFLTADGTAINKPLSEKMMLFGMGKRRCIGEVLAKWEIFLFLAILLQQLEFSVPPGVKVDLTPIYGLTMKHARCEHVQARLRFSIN

[9] = Half life in Beagle dog at 2 mg/kg, iv; assay type: ADME, organism-based, Canis lupus familiaris; parameters: dose 2 mg/kg, route intravenous; settings: in vivo
Cytochrome P450 2C19 = Cytochrome P450 2C19 (Homo sapiens, UniProt P33261); assay: Inhibition of human CYP2C19; assay type: ADME
[10] = molecular target: T3, Polyunsaturated fatty acid 5-lipoxygenase (Homo sapiens, UniProt P09917); assay: Inhibition of 5-lipoxygenase
T3 sequence (P09917 whole entry): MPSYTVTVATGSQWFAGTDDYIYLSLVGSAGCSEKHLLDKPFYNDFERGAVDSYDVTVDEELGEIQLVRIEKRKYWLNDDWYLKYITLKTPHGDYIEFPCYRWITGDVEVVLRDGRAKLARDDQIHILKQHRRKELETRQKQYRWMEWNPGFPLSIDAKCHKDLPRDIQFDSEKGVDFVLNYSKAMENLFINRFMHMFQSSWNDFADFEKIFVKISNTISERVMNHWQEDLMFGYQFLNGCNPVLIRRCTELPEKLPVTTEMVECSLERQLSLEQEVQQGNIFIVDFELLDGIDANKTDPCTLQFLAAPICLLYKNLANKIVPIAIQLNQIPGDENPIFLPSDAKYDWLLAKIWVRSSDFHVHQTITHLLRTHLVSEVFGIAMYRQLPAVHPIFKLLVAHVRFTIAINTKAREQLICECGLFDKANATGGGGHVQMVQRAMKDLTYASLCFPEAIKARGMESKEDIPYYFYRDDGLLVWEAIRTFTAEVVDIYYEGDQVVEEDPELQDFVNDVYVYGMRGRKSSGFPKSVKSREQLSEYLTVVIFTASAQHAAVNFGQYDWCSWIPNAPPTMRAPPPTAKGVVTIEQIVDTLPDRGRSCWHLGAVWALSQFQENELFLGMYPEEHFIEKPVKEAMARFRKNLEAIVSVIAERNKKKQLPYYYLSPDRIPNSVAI

[11] = molecular target: T1, Arachidonate 5-lipoxygenase-activating protein; assay: Inhibition of FLAP in human peripheral leukocytes assessed as inhibition of calcium ionophore A23187-induced LTB4 production after 5 mins by ELISA in absence of human serum albumin; assay type: cell-based
[12] = Oral bioavailability in Beagle dog at 5 mg/kg; assay type: ADME, organism-based, Canis lupus familiaris; settings: in vivo
[13] = molecular target: T4, Arachidonate 5-lipoxygenase-activating protein (Rattus norvegicus, UniProt P20291); assay: Inhibition of FLAP in rat whole blood assessed as inhibition of calcium ionophore A23187-induced LTB4 production preincubated for 4 hrs by ELISA; assay type: tissue-based
T4 sequence (P20291 whole entry): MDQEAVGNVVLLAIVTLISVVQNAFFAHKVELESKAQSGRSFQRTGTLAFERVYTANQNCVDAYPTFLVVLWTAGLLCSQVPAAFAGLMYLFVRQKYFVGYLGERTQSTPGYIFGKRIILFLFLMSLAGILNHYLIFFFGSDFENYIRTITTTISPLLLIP

Rattus norvegicus [14] = assay: Antiinflammatory activity in rat assessed as inhibition of calcium ionophore A23187-induced LTB4 production in bronchoalveolar lavage fluid at 3 mg/kg, po administered 16 hrs prior to A23187 challenge; assay type: functional, Lung; parameters: scale not given: the % may be the effect or the level left
[15] = molecular target: T1, Arachidonate 5-lipoxygenase-activating protein; assay: Inhibition of FLAP in human peripheral leukocytes assessed as inhibition of calcium ionophore A23187-induced LTB4 production after 1 hr by ELISA in absence of human serum albumin; assay type: cell-based
[16] = molecular target: T1, Arachidonate 5-lipoxygenase-activating protein; assay: Inhibition of FLAP in human peripheral leukocytes assessed as inhibition of calcium ionophore A23187-induced LTB4 production after 10 mins by ELISA; assay type: cell-based
Plasma = assay: Plasma protein binding in dog; assay type: ADME, cell-free, Canis lupus familiaris
[17] = Plasma concentration in rat at 3 mg/kg, po after 16 hrs; assay type: ADME, organism-based; parameters: dose 3 mg/kg, route oral
Cytochrome P450 2C9 = Cytochrome P450 2C9 (Homo sapiens, UniProt P11712); assay: Inhibition of human CYP2C9; assay type: ADME
Leukotriene C4 synthase = molecular target: T5, Leukotriene C4 synthase (Homo sapiens, UniProt Q16873); assay: Inhibition of LTC4 synthase
T5 sequence (Q16873 whole entry): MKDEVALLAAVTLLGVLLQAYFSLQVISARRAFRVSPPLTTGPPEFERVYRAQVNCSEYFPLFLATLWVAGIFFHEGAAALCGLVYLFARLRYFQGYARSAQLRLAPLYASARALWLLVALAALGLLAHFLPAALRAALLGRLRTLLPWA

Cytochrome P450 2C19, sequence (P33261 whole entry): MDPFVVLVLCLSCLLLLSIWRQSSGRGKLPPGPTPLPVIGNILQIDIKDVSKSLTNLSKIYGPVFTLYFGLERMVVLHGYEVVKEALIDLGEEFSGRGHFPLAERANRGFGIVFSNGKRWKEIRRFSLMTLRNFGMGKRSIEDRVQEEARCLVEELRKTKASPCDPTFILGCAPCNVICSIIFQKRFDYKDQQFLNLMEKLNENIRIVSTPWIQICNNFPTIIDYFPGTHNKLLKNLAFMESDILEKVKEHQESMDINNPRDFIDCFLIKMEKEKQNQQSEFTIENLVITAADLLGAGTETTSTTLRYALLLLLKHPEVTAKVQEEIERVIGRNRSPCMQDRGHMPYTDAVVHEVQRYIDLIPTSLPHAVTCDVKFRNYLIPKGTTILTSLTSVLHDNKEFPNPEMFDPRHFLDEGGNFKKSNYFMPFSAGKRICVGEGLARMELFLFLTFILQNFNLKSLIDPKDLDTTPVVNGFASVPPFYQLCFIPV
Cytochrome P450 3A4, sequence (P08684 whole entry): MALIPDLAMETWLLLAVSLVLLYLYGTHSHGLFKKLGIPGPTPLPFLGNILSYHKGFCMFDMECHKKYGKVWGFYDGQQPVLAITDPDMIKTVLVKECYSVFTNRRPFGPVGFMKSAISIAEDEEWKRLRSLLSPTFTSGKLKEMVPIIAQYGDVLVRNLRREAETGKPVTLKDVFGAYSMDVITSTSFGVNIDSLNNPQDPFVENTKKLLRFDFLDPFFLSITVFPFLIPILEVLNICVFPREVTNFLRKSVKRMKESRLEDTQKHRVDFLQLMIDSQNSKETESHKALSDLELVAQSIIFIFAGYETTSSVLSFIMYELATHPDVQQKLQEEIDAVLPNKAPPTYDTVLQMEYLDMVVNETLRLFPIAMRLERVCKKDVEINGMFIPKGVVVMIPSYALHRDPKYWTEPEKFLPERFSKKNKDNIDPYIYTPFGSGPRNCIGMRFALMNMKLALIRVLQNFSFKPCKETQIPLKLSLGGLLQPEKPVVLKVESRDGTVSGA
Cytochrome P450 2C9, sequence (P11712 whole entry): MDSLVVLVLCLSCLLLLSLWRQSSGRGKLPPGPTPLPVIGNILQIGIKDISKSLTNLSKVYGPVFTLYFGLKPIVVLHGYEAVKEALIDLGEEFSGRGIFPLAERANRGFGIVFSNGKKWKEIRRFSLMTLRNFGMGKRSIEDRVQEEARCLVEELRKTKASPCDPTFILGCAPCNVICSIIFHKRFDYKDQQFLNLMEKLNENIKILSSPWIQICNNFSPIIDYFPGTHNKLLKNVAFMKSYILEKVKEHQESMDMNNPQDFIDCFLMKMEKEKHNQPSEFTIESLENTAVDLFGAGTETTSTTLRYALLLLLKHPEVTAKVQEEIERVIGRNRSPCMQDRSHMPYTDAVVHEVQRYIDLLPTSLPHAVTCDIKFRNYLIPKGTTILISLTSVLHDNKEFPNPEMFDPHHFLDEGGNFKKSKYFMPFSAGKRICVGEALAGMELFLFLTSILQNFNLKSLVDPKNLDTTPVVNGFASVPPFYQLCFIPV

Question: For `CCOc1ccc(-c2ccc(Cn3c(CC(C)(C)C(=O)O)c(SC(C)(C)C)c4cc(OCc5ccc(C)cn5)ccc43)cc2)cn1` [FIBOFLAPON], which Vd [1] is on record?
Answer: Its Vd is 0.2 L/kg.

Question: And the fraction unbound [2]?
Answer: The fraction unbound was 0.005.

Question: What about the Activity (Rattus norvegicus [3]) of the same compound?
Answer: Its Activity is 100%.

Question: And the clearance [4]?
Answer: Its clearance is 0.6 mL/min/kg.

Question: What about the IC50 [5] of the same compound?
Answer: The IC50 was 26 nM.

Question: And the IC50 [6]?
Answer: The IC50 was 506 nM.

Question: And the concentration at 4 h [7]?
Answer: The concentration at 4 h was 1000 nM.

Question: What about the TDI (Cytochrome P450 3A4) of the same compound?
Answer: Its TDI is “Not Active”.

Question: What about the Activity (Rattus norvegicus [8]) of the same compound?
Answer: The Activity was 41%.

Question: And the IC50 (Cytochrome P450 1A2)?
Answer: Its IC50 is > 40000 nM.

Question: And the half-life [9]?
Answer: The half-life was 13 h.

Question: And the IC50 (Cytochrome P450 2C19)?
Answer: The IC50 was > 40000 nM.

Question: And the IC50 [10]?
Answer: The IC50 was 20000 nM.

Question: And the IC50 [11]?
Answer: The IC50 was 1 nM.

Question: What about the bioavailability [12] of the same compound?
Answer: The bioavailability was 51%.

Question: And the IC50 [13]?
Answer: Its IC50 is 16 nM.

Question: And the Activity (Rattus norvegicus [14])?
Answer: Its Activity is 86%.

Question: And the IC50 [15]?
Answer: Its IC50 is 1 nM.

Question: And the IC50 [16]?
Answer: The IC50 was 0.7 nM.

Question: And the PPB (Plasma)?
Answer: The PPB was 99.7%.

Question: And the concentration at 16 h [17]?
Answer: Its concentration at 16 h is 3 nM.

Question: And the IC50 (Cytochrome P450 2C9)?
Answer: Its IC50 is > 50000 nM.

Question: And the IC50 (Leukotriene C4 synthase)?
Answer: The IC50 was 36000 nM.
